Source: the supplement of paper PMC5908809

Experiments:
[1] = test system: normal NK cells expanded with K562-aAPC; assay: percent inhibition of viability; higher = more inhibition; details: 72 h, IL-2 2.5 ng/mL
Procedure: (§1)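 Drug sensitivity and resistance testing on K562-aAPC-expanded normal NK cells: 5 concentrations (10-fold steps over a 10,000-fold range), 72 h at 37 °C, viability by CellTiter-Glo normalised to DMSO and benzethonium chloride controls; DSS from the fitted curve.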

DERL-7 (IL-2 2.5 ng/mL) [2] = assay: as above; details: 72 h
IMC-1 (IL-2 20 ng/mL) [3] = assay: as above; details: 72 h
KAI3 (IL-2 2.5 ng/mL) [4] = assay: as above; details: 72 h
KHYG-1 (IL-2 2.5 ng/mL) [5] = assay: as above; details: 72 h
NK-92 (IL-2 2.5 ng/mL) [6] = assay: as above; details: 72 h
NK-YS (IL-2 2.5 ng/mL) [7] = assay: as above; details: 72 h
NKL (IL-2 2.5 ng/mL) [8] = assay: as above; details: 72 h
SNK-6 (IL-2 2.5 ng/mL) [9] = assay: as above; details: 72 h
YT (IL-2 2.5 ng/mL) [10] = assay: as above; details: 72 h
[11] = test system: normal primary NK cells, pool 1 (3 donors) (IL-2 2.5 ng/mL); assay: as above; details: 72 h
[12] = test system: normal primary NK cells, pool 1 (3 donors), resting (IL-2 0 ng/mL); assay: as above; details: 72 h
[13] = test system: normal primary NK cells, pool 2 (3 donors) (IL-2 2.5 ng/mL); assay: as above; details: 72 h
[14] = test system: normal primary NK cells, pool 3 (3 donors) (IL-2 2.5 ng/mL); assay: as above; details: 72 h
[15] = test system: normal NK cells expanded with K562-aAPC; assay: drug sensitivity score (DSS) (DSS units); higher = more sensitive; extreme values may be limits of the assay; details: 72 h; IL-2 2.5 ng/mL
Procedure: as §1

DERL-7 (IL-2 2.5 ng/mL) [16] = assay: as above; details: 72 h
IMC-1 (IL-2 20 ng/mL) [17] = assay: as above; details: 72 h
KAI3 (IL-2 2.5 ng/mL) [18] = assay: as above; details: 72 h
KHYG-1 (IL-2 2.5 ng/mL) [19] = assay: as above; details: 72 h
NK-92 (IL-2 2.5 ng/mL) [20] = assay: as above; details: 72 h
NK-YS (IL-2 2.5 ng/mL) [21] = assay: as above; details: 72 h
NKL (IL-2 2.5 ng/mL) [22] = assay: as above; details: 72 h
SNK-6 (IL-2 2.5 ng/mL) [23] = assay: as above; details: 72 h
YT (IL-2 2.5 ng/mL) [24] = assay: as above; details: 72 h
[25] = test system: normal primary NK cells, pool 1 (3 donors) (IL-2 2.5 ng/mL); assay: as above; details: 72 h
[26] = test system: normal primary NK cells, pool 1 (3 donors), resting (IL-2 0 ng/mL); assay: as above; details: 72 h
[27] = test system: normal primary NK cells, pool 2 (3 donors) (IL-2 2.5 ng/mL); assay: as above; details: 72 h
[28] = test system: normal primary NK cells, pool 3 (3 donors) (IL-2 2.5 ng/mL); assay: as above; details: 72 h

O=C(Nc1ccc(-c2ccnc(Nc3ccc(N4CCOCC4)cc3)n2)cc1)C1CCCN1 (centres undefined) [XL019] (max concentration tested 10000 nM)
percent inhibition of viability [%]
Details | 1 nM | 10 nM | 100 nM | 1000 nM | 10000 nM
DERL-7 (IL-2 2.5 ng/mL) [2] | 0.19 | 0.52 | 7.06 | 25.9 | 71.8
IMC-1 (IL-2 20 ng/mL) [3] | -1.28 | -4.89 | 1.81 | -0.33 | 61.4
KAI3 (IL-2 2.5 ng/mL) [4] | -6.77 | -0.02 | 6.51 | 18.2 | 83.2
KHYG-1 (IL-2 2.5 ng/mL) [5] | -4.32 | -2.94 | 2.79 | 6.64 | 81.2
NK-92 (IL-2 2.5 ng/mL) [6] | 1.46 | -2 | -6.58 | -8.42 | 44.8
NK-YS (IL-2 2.5 ng/mL) [7] | -3 | -6.33 | -0.83 | 6.03 | 49.6
NKL (IL-2 2.5 ng/mL) [8] | -2.13 | 4.85 | 23.2 | 31.3 | 72.5
SNK-6 (IL-2 2.5 ng/mL) [9] | -2.35 | -15.3 | 3.5 | -9.49 | 27.1
YT (IL-2 2.5 ng/mL) [10] | 0.46 | -0.22 | 5.02 | 2.15 | 33.3
[1] | -3.5 | -1.96 | 2.68 | 12.6 | 72
[11] | -9.78 | 0.22 | -10.4 | 9.22 | 80
[12] | 1.73 | 2.9 | -4.73 | 19.1 | 61.7
[13] | -2.68 | -3.46 | -5.23 | 19.5 | 74.1
[14] | -1.82 | 6.1 | -1.33 | 13.9 | 81.2

Details | drug sensitivity score
DERL-7 (IL-2 2.5 ng/mL) [16] | 6.99
IMC-1 (IL-2 20 ng/mL) [17] | 3.31
KAI3 (IL-2 2.5 ng/mL) [18] | 7.51
KHYG-1 (IL-2 2.5 ng/mL) [19] | 5.54
NK-92 (IL-2 2.5 ng/mL) [20] | 1.81
NK-YS (IL-2 2.5 ng/mL) [21] | 3.62
NKL (IL-2 2.5 ng/mL) [22] | 9.26
SNK-6 (IL-2 2.5 ng/mL) [23] | 0.74
YT (IL-2 2.5 ng/mL) [24] | 1.85
[15] | 6.07
[25] | 5.96
[26] | 6.18
[27] | 7.07
[28] | 6.8
